Measured values taken from patent US20240317755A1, “HETEROCYCLIC COMPOUND, AND INTERMEDIATE THEREOF, PREPARATION METHOD THEREFOR AND USE THEREOF” (WUHAN LL SCIENCE AND TECHNOLOGY DEVELOPMENT CO., LTD., priority 2021, published 2024).
pIC50: −log10 of the molar value. Where two headings read alike, the source gives them in different places.

Experiments:
TRPC5 channel = TRPC5 channel (Homo sapiens (Human), UniProt Q9UL62); assay: TRPC5 calcium flux assay (Fluo-4, FLIPR) in TRPC5-HEK 293 cells; assay type: cell-based; conditions: 0.3 nM Englerin A
Sequence of TRPC5 channel (Q9UL62 whole entry): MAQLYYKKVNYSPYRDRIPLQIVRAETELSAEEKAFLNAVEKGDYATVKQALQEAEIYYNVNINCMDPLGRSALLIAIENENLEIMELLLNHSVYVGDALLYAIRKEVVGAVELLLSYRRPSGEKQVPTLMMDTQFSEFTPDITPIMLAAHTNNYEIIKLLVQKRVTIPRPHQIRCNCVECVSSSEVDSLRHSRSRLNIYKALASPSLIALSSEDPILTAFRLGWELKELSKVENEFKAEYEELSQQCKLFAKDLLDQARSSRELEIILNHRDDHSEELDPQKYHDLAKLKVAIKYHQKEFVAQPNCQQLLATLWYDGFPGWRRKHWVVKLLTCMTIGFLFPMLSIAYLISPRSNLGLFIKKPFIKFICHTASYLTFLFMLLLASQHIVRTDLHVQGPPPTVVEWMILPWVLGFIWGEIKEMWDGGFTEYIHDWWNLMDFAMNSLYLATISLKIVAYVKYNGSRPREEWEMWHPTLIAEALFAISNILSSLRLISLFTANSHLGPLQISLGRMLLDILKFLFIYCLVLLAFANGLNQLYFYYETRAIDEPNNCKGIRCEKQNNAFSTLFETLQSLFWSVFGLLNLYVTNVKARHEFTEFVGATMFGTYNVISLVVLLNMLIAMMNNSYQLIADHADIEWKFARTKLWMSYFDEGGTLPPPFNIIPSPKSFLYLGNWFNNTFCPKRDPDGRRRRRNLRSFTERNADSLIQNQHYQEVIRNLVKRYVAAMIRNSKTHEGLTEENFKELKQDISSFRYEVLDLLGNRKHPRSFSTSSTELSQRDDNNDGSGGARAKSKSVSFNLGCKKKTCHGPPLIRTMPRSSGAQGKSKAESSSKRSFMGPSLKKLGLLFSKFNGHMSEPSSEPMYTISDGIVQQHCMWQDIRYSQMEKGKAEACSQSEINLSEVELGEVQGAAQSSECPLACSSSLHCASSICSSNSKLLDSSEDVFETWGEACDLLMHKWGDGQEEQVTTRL
Protocol: TRPC5 is a type of non-selective cation channel with permeability to calcium ions. […] Fluo-4 AM fluorescence dye was used to indirectly reflect the effect of the compound on TRPC5 channel by detecting intracellular Ca^2+ in TRPC5-HEK 293 cells.
• Revival solution: 100% high glucose DMEM • Selection medium: high glucose DMEM+10% FBS+1% P/S+1% HEPES+Blasticidin (5 μg/mL)+Hygromycine (50 μg/mL) • Induction medium: high glucose DMEM+10% FBS+1% P/S+1% HEPES+Doxycycline (1 μg/mL)
(§1) 14 hours before the real-time fluorescence experiment, cells were washed with PBS and digested with trypsin-EDTA. Cells were diluted to 200,000 cells/mL with induction medium and seeded onto a 96-well black wall bottom transparent plate coated with poly-D-lysine (PDL) (stock solution of 10 mg/mL, final concentration of 10 μg/mL) at 100 μL/well, i.e., 20,000 cells/well.
500 mL of external solution for detecting TRPC5 calcium signals: 4.0908 g of NaCl, 0.1864 g of KCl, 0.111 g of CaCl2, 0.0476 g of MgCl2, 0.9 g of glucose, 1.1915 g of HEPES (2-[4-(2-hydroxyethyl)piperazin-1-yl]ethanesulfonic acid).
Calcium fluorescent dye: an external solution for detecting TRPC5 calcium signals containing Fluo-4 with a final concentration of 4 μM (containing 0.5% BSA)
Positive inhibitor concentration: 100 nM
The dose-effect diagram was used to calculate AUC (area under the curve of the curve formed by the calcium flux signal), and the data and the log of the compound concentration were collected. The IC50 value was calculated using log[Inhibitor] vs. response Variable slope.
TRPC5 is a type of non-selective cation channel with permeability to calcium ions. […] Fluo-4 AM fluorescence dye was used to indirectly reflect the effect of the compound on TRPC5 channel by detecting intracellular […] in TRPC5-HEK 293 cells.
1. Cell culture 1.1 Revival of TRPC5-HEK 293 cells • Revival solution: 100% high glucose DMEM • Selection medium: high glucose DMEM+10% FBS+1% P/S+1% HEPES+Blasticidin (5 μg/mL)+Hygromycine (50 μg/mL) • Induction medium: high glucose DMEM+10% FBS+1% P/S+1% HEPES+Doxycycline (1 μg/mL)
as §1, with “trypsin-EDTA (TE).” for “trypsin-EDTA.”

[1] = Liver microsome half-life assay, mouse; assay type: in vitro ADME; conditions: liver microsomes, 1 mg/mL liver microsomal protein, 37° C., read-out: Liver microsome T½ (min) Mouse
Protocol: The in vitro metabolic stability of the compounds of the present disclosure was determined using warm incubation method of liver microsomes in various species. A proper amount of test compound was added to the liver microsomal reaction system (1 mg/mL liver microsomal protein, 25 U/mL glucose-6-phosphate dehydrogenase, 1 mM NADP, 6 mM D-glucose 6-phosphate, 5 mM MgCl2), and the reaction was started by warm incubation in a water bath at 37° C., then 100 μL of the reaction mixture at each time point was added to a centrifuge tube containing 400 μL of internal standard working solution precooled at 0° C. (containing a solution of 200 ng/mL dexamethasone, diclofenac, tolbutamide, and labetalol in acetonitrile), then the reaction was terminated, centrifuged at 4° C. and 10,000 g for 10 min, and the supernatant was taken into LC-MS for analysis and detection to obtain in vitro metabolic half-lives of the test compounds in liver microsomes of various species.

pIC50 (TRPC5 channel; Table 1, read-out: TRPC5 inhibitory activity, IC50): 7.94
pIC50 (TRPC5 channel; Table 11, read-out: TRPC5 inhibitory activity, IC50): 7.94
half-life [1]: 78 min
SMILES: O=C(c1ccc(F)cc1C(F)(F)F)c1cnc2n1CCN(c1cn[nH]c(=O)c1Cl)C2 [Compound 1-6, 4-chloro-5-(3-(4-fluoro-2-(trifluoromethyl)benzoyl)-5,6-dihydroimidazo[1,2-a]pyrazin-7(8H)-yl)pyridazin-3(2H)-one]
